Data published in article PMC10314895, “Targeted protein degradation reveals BET bromodomains as the cellular target of Hedgehog pathway inhibitor-1” (Nature Communications, 2023).

How the values were obtained:
Assay type in all cases: binding
BRD2 [1] = target: T1, BRD2 (Homo sapiens, UniProt P25440); experiment: BromoKd affinity assay (Eurofins Discovery); design: second bromodomain BD2, BRD2(2)
Target sequence in this assay (P25440 344-453 limits assumed): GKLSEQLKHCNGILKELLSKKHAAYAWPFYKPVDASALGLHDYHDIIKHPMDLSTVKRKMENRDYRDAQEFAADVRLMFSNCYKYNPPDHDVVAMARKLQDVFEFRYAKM

BRD4 [2] = target: T2, BRD4 (Homo sapiens, UniProt O60885); experiment: BromoKd affinity assay (Eurofins Discovery)
BRD3 [3] = target: T3, BRD3 (Homo sapiens, UniProt Q15059); experiment: BromoKd affinity assay (Eurofins Discovery)
T3 sequence (Q15059 2-726): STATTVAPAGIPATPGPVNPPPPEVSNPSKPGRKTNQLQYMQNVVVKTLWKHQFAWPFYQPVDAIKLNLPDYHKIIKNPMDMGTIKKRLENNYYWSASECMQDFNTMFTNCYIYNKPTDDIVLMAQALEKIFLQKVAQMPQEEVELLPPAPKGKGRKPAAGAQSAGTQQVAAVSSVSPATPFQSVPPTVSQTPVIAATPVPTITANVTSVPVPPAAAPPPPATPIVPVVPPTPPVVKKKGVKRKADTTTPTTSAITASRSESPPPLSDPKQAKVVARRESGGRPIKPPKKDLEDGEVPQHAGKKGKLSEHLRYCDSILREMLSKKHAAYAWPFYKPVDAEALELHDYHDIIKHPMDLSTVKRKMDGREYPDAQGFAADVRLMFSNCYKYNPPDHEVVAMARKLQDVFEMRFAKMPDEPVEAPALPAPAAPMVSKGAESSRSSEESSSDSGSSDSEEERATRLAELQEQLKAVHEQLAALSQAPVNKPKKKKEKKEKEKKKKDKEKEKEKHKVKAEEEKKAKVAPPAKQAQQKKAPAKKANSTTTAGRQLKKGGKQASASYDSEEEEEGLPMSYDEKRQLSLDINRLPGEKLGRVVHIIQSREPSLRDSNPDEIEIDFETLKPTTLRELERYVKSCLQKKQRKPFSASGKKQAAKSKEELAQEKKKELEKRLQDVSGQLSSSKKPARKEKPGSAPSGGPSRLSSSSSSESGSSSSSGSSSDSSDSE

BRD3 [4] = target: T3, BRD3; experiment: BromoKd affinity assay (Eurofins Discovery); cellular degradation competed by HPI-1
BRD2 [5] = target: T1, BRD2; experiment: as above
Target sequence in this assay (P25440 whole entry): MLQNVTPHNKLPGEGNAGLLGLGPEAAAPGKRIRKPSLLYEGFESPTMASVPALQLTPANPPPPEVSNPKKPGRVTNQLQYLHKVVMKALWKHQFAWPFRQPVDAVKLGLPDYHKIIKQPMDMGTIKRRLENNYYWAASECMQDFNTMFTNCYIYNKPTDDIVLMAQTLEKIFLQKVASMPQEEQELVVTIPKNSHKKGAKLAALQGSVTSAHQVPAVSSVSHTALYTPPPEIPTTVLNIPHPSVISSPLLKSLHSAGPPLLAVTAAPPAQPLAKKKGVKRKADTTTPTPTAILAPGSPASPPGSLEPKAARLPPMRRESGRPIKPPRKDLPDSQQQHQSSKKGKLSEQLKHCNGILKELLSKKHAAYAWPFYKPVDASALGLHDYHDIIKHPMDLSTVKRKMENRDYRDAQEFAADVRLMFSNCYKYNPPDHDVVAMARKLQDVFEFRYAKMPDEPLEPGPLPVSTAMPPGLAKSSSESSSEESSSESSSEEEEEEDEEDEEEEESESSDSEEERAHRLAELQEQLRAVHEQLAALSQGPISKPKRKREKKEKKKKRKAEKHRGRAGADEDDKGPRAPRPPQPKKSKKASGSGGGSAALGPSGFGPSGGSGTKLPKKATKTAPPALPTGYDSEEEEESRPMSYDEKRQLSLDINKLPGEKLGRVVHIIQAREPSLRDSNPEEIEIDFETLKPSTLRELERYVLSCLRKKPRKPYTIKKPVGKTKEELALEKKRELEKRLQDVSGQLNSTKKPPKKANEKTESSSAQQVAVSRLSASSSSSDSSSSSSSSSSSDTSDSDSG

BRD4 [6] = target: T2, BRD4; experiment: as above

Compound	Kd (BRD2 [1])	Kd (BRD4 [2])	Kd (BRD3 [3])	Kd (BRD3 [4])	Kd (BRD2 [5])	Kd (BRD4 [6])
COCCOC(=O)C1=C(C)NC2=C(C(=O)CC(c3ccccc3OC)C2)C1c1cccc(O)c1 (stereo not drawn) [HPI-1]	17 nM	~15 nM	~15 nM	–	–	–
COCCOC(=O)C1=C(C)NC2=C(C(=O)CC(c3ccccc3OC)C2)C1c1cccc(OCc2cn(CCCCCCOc3cccc4c3C(=O)N(C3CCC(=O)NC3=O)C4=O)nn2)c1 (stereo not drawn) [HPP-9]	–	–	–	~200 nM	~200 nM	~200 nM
